Results published in ChEMBL document CHEMBL1201862, “PubChem BioAssay data set” (2004).
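Growth conditions: 96-well plates. Treatment: test compound, 48 hours, 5 concentrations. Analysis: linear interpolation between bracketing concentrations; unreached endpoints set to highest concentration. GI50 marks 50% less growth.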 Activity calls are given as the source filed them. Rule as the data show it: active = GI50 up to about 1.1 µM and inactive = higher. Non-standard residues stand in square brackets, D forms with d. Residues, ends and D or L forms follow the SMILES beside them.

Columns and labels:
Assay in all cases: growth of human tumour cells (NCI), 48 h
SK-MEL-2 = system: SK-MEL-2
HL-60 = system: HL-60
SNB-19 = system: SNB-19
SF-295 = system: SF-295
DMS-273 = system: DMS-273
LOX IMVI = system: LOX IMVI
LXFL 529 = system: LXFL 529
M14 = system: M14
UACC-62 = system: UACC-62
A549 = system: A549
Malme-3M = system: Malme-3M
COLO 205 = system: COLO 205
EKVX = system: EKVX
IGROV-1 = system: IGROV-1
PC-3 = system: PC-3
MDA-MB-231 = system: MDA-MB-231
MDA-N = system: MDA-N
HCC 2998 = system: HCC 2998
MCF7 = system: MCF7
SNB-75 = system: SNB-75

Measured: GI50

CCC1C(=O)OCc2c1cc1n(c2=O)C(CC)c2c-1nc1ccccc1c2Cl (centres undefined)
inactive: SK-MEL-2 21 µM | HL-60 22.2 µM | SNB-19 29.6 µM | SF-295 23.4 µM | DMS-273 7.85 µM | LOX IMVI 33.1 µM | LXFL 529 25.9 µM | M14 33.7 µM | UACC-62 18.2 µM | A549 26.7 µM | Malme-3M 38.8 µM | COLO 205 16.2 µM | EKVX 25.2 µM | IGROV-1 19.9 µM

CCOC(=O)c1cc2c(ccc3cc(C(=O)OCC)[nH]c32)[nH]1
inactive: SK-MEL-2 > 100 µM | HL-60 > 10 µM | SNB-19 25.4 µM | PC-3 > 100 µM | SF-295 60.7 µM | MDA-MB-231 12.6 µM | MDA-N 51.5 µM | LOX IMVI 25.6 µM | M14 23 µM | UACC-62 45.9 µM | A549 29.7 µM | Malme-3M 43.3 µM | COLO 205 65.3 µM | EKVX > 100 µM | HCC 2998 99.8 µM | MCF7 50.2 µM | SNB-75 16.8 µM | IGROV-1 53.7 µM

CCOc1ccc(NC(=O)CC2SC(N)=NC2=O)cc1 (centres undefined)
inactive: SK-MEL-2 > 100 µM | HL-60 > 100 µM | SNB-19 > 100 µM | SF-295 > 100 µM | LOX IMVI > 100 µM | LXFL 529 > 100 µM | M14 > 100 µM | UACC-62 > 100 µM | A549 > 100 µM | Malme-3M > 100 µM | COLO 205 > 100 µM | EKVX > 100 µM | HCC 2998 > 100 µM | SNB-75 > 100 µM | IGROV-1 > 100 µM

C[N+](C)(C)C.FC(F)(F)C1(C(F)(F)F)O[SiH-]2(OC(C(F)(F)F)(C(F)(F)F)c3ccccc32)c2ccccc21
inactive: SK-MEL-2 17.7 µM | SNB-19 7.18 µM | SF-295 4.81 µM | DMS-273 20.1 µM | LXFL 529 12.6 µM | M14 10 µM | A549 10 µM | Malme-3M 19.5 µM | COLO 205 20 µM | EKVX 14.2 µM | HCC 2998 19.2 µM

COC(=O)c1nc(N)nc(C(=O)OC)c1C(=O)c1ccccc1
inactive: SK-MEL-2 > 100 µM | HL-60 > 100 µM | SNB-19 > 100 µM | SF-295 > 100 µM | LOX IMVI > 100 µM | LXFL 529 > 100 µM | M14 > 100 µM | UACC-62 > 100 µM | A549 > 100 µM | Malme-3M > 100 µM | EKVX > 100 µM | HCC 2998 > 100 µM | SNB-75 54.1 µM | IGROV-1 > 100 µM

CC(C)NC(=O)OCc1c(COC(=O)NC(C)C)n(C)c2c1ccc1sccc12
inactive: SK-MEL-2 16.4 µM | HL-60 > 100 µM | SNB-19 20.8 µM | PC-3 11.5 µM | SF-295 10 µM | MDA-MB-231 20.1 µM | MDA-N 17.4 µM | LOX IMVI 7.94 µM | M14 14.1 µM | UACC-62 10.2 µM | A549 > 36.6 µM | Malme-3M 3.15 µM | COLO 205 13.6 µM | EKVX 11.2 µM | HCC 2998 15.2 µM | MCF7 13.5 µM | SNB-75 14.4 µM | IGROV-1 3.02 µM

COc1ccc(OC(C(=O)O)C(C)C)c2c1CCCC2=O (centres undefined)
inactive: SK-MEL-2 > 100 µM | HL-60 > 100 µM | SNB-19 > 100 µM | SF-295 > 100 µM | DMS-273 > 100 µM | LOX IMVI > 100 µM | LXFL 529 > 100 µM | M14 > 100 µM | UACC-62 > 100 µM | A549 > 100 µM | Malme-3M > 100 µM | COLO 205 > 100 µM | EKVX > 100 µM | HCC 2998 > 100 µM | IGROV-1 > 100 µM

CC1=C2O[B-](c3ccccc3)(c3ccccc3)[O+]=C2C=CN1
inactive: HL-60 27.4 µM | SNB-19 37.3 µM | SF-295 48.2 µM | DMS-273 45.9 µM | LOX IMVI 52.4 µM | M14 40 µM | UACC-62 21.2 µM | A549 58.3 µM | Malme-3M 34.6 µM | COLO 205 45.1 µM | EKVX 28.8 µM | SNB-75 22.8 µM | IGROV-1 61.7 µM

C/C(=C/CO[Si](C)(C)C(C)(C)C)C(=O)N(C)c1ccccc1I
inactive: SK-MEL-2 15.7 µM | HL-60 12.2 µM | SNB-19 16.6 µM | PC-3 14.1 µM | SF-295 16.5 µM | MDA-MB-231 15.1 µM | MDA-N 17.7 µM | LOX IMVI 17.3 µM | M14 15.2 µM | UACC-62 14.8 µM | A549 16.6 µM | Malme-3M 14.3 µM | COLO 205 18.5 µM | EKVX 15 µM | HCC 2998 14.3 µM | MCF7 16.9 µM | SNB-75 19.1 µM | IGROV-1 16 µM

CN/N=C(/Cc1occc(=O)c1O)C(=O)Nc1ccc(C)c(C)c1
inactive: SK-MEL-2 > 100 µM | HL-60 > 100 µM | SNB-19 > 100 µM | SF-295 > 100 µM | LOX IMVI > 100 µM | LXFL 529 > 100 µM | M14 > 100 µM | UACC-62 > 100 µM | A549 > 100 µM | Malme-3M > 100 µM | COLO 205 > 100 µM | EKVX > 100 µM | HCC 2998 > 100 µM | IGROV-1 > 100 µM

COC(=O)CC1CN(C(=O)OCc2ccccc2)C(C)(C)O1 (centres undefined)
inactive: SK-MEL-2 > 100 µM | HL-60 89.9 µM | SNB-19 7.08 µM | PC-3 62.7 µM | SF-295 > 100 µM | MDA-MB-231 > 100 µM | MDA-N > 100 µM | LOX IMVI > 100 µM | M14 > 100 µM | UACC-62 > 100 µM | A549 > 100 µM | Malme-3M 45.3 µM | COLO 205 > 100 µM | EKVX 35.2 µM | HCC 2998 > 100 µM | MCF7 > 100 µM | SNB-75 3.3 µM | IGROV-1 82.2 µM

CN(Cc1ccccc1)C(=NC#N)N(C)Cc1ccccc1
inactive: SK-MEL-2 > 100 µM | SNB-19 > 100 µM | SF-295 > 100 µM | DMS-273 > 100 µM | LOX IMVI > 100 µM | LXFL 529 > 100 µM | M14 > 100 µM | UACC-62 > 100 µM | A549 > 100 µM | COLO 205 > 100 µM | EKVX > 100 µM | HCC 2998 > 100 µM | IGROV-1 > 100 µM

CC1NC(=O)CC(c2ccccc2)N(N=O)C1c1ccccc1 (centres undefined)
inactive: SK-MEL-2 39.5 µM | HL-60 24.8 µM | SNB-19 40 µM | SF-295 30.7 µM | DMS-273 26 µM | LOX IMVI 37.9 µM | UACC-62 35.4 µM | A549 53.2 µM | Malme-3M 52.5 µM | COLO 205 26.6 µM | EKVX > 70.6 µM | HCC 2998 35.4 µM | MCF7 44.3 µM | SNB-75 25.4 µM | IGROV-1 42.1 µM

O=C(Nc1c(Cl)cc([N+](=O)[O-])cc1Cl)C(=O)C(C1OC(=O)c2ccccc21)[N+](=O)[O-] (centres undefined)
inactive: SK-MEL-2 > 100 µM | HL-60 > 100 µM | SNB-19 > 100 µM | SF-295 > 100 µM | LOX IMVI 81.7 µM | LXFL 529 > 100 µM | M14 > 100 µM | UACC-62 > 100 µM | A549 > 100 µM | Malme-3M > 100 µM | COLO 205 > 100 µM | EKVX 75.9 µM | HCC 2998 > 100 µM | SNB-75 > 100 µM | IGROV-1 > 100 µM

Cc1ccc(S(=O)(=O)NCC2CCCCC2=O)cc1 (centres undefined)
inactive: SK-MEL-2 > 100 µM | HL-60 45.3 µM | SNB-19 > 100 µM | SF-295 > 100 µM | DMS-273 > 100 µM | LOX IMVI > 100 µM | LXFL 529 > 100 µM | M14 > 100 µM | UACC-62 66.5 µM | A549 > 100 µM | Malme-3M > 100 µM | COLO 205 > 100 µM | EKVX > 100 µM | SNB-75 22.9 µM | IGROV-1 > 100 µM

CCC1(C(=O)OC(C)(C)C)OC12C(C)CCCC2C (centres undefined)
inactive: SK-MEL-2 44.8 µM | HL-60 17.8 µM | SNB-19 48.9 µM | PC-3 57.9 µM | SF-295 38.4 µM | MDA-MB-231 > 100 µM | MDA-N 56.8 µM | LOX IMVI 32.1 µM | M14 41.2 µM | UACC-62 50.4 µM | A549 34.8 µM | Malme-3M 56.2 µM | COLO 205 23.9 µM | EKVX 63.7 µM | HCC 2998 18.3 µM | MCF7 24.3 µM | SNB-75 32.9 µM | IGROV-1 > 100 µM

CC(C)C[C@H](NC(=O)[C@H](CC(C)C)NC(=O)[C@@H](Cc1c[nH]c2ccccc12)NC(=O)[C@H](Cc1ccccc1)NC(=O)[C@@H](Cc1c[nH]c2ccccc12)NC(=O)[C@H](CCC(N)=O)NC(=O)[C@H](CCC(N)=O)NC(=O)[C@H]1CCCN1C(=O)[C@@H](N)CCCCN)C(N)=O (H-K[dP]QQ[dW]F[dW]LL-NH2)
inactive: SK-MEL-2 > 100 µM | HL-60 > 100 µM | SNB-19 > 100 µM | SF-295 > 100 µM | DMS-273 > 100 µM | LOX IMVI > 100 µM | UACC-62 > 100 µM | A549 > 100 µM | Malme-3M > 100 µM | COLO 205 > 100 µM | EKVX > 100 µM | HCC 2998 > 100 µM | MCF7 > 100 µM | SNB-75 > 100 µM | IGROV-1 > 100 µM
